Consider six molecules from ChEMBL document CHEMBL3046839, “Six insecticidal isoryanodane diterpenoids from the bark and twigs of Itoa orientalis” (2008).

Assay [1] has as its system Spodoptera exigua. Kind of assay: Insecticidal activity against Spodoptera exigua larvae reared on artificial diet assessed as mortality rate at 32 ppm after 72 hr. Type of assay: functional.
Assay [2] has as its system KB. The experiment in a line: Cytotoxicity against Homo sapiens (human) KB cells at 10 uM by MTT assay. The format is functional, cell-based. (Tetrazolium dyes change colour on reduction, which living cells bring about.)
In assay [3] the test system is BGC-823. The experiment in a line: Cytotoxicity against Homo sapiens (human) BGC823 cells at 10 uM by MTT assay. Type of assay: functional, cell-based.
Assay [4] deals with Bel-7402. Kind of assay: Cytotoxicity against Homo sapiens (human) Bel7402 cells at 10 uM by MTT assay. The format is functional, cell-based.
The test system of assay [5] is Spodoptera exigua. The experiment in a line: Insecticidal activity against Spodoptera exigua larvae reared on artificial diet assessed as mortality rate at 73.63 ppm after 72 hr. The format is functional.
The test system of assay [6] is Spodoptera exigua. Kind of assay: Insecticidal activity against Spodoptera exigua larvae reared on artificial diet assessed as mortality rate at 56.19 ppm after 72 hr. Type of assay: functional.
The test system of assay [7] is Spodoptera exigua. Kind of assay: Insecticidal activity against Spodoptera exigua larvae reared on artificial diet assessed as mortality rate after 72 hr. Type of assay: functional. As to conditions: for LC50: Spodoptera exigua, 72 h.
The test system of assay [8] is HL-60. Kind of assay: Cytotoxicity against Homo sapiens (human) HL60 cells at 10 uM by MTT assay. The format is functional, cell-based.
For assay [9], the system named is Spodoptera exigua. Kind of assay: Insecticidal activity against Spodoptera exigua larvae reared on artificial diet assessed as mortality rate at 42.63 ppm after 72 hr. The format is functional.
Assay [10] concerns Helicoverpa armigera. The experiment in a line: Insecticidal activity against Heliothis armigera larvae reared on artificial diet assessed as growth inhibition after 72 hr. The format is functional, organism-based.
Assay [11] deals with Spodoptera exigua. The experiment in a line: Insecticidal activity against Spodoptera exigua larvae reared on artificial diet assessed as mortality rate at 96.88 ppm after 72 hr. Type of assay: functional.
In assay [12] the test system is Spodoptera exigua. Kind of assay: Insecticidal activity against Spodoptera exigua larvae reared on artificial diet assessed as mortality rate at 72.68 ppm after 72 hr. Type of assay: functional.
The subject of assay [13] is Spodoptera exigua. Kind of assay: Insecticidal activity against Spodoptera exigua larvae reared on artificial diet assessed as mortality rate at 31.56 ppm after 72 hr. The format is functional.
Assay [14] has as its system Spodoptera exigua. Kind of assay: Insecticidal activity against Spodoptera exigua larvae reared on artificial diet assessed as mortality rate at 42.08 ppm after 72 hr. The format is functional.
Assay [15] deals with Spodoptera exigua. Kind of assay: Insecticidal activity against Spodoptera exigua larvae reared on artificial diet assessed as mortality rate at 55.64 ppm after 72 hr. The format is functional.
Assay [16] concerns Spodoptera exigua. Kind of assay: Insecticidal activity against Spodoptera exigua larvae reared on artificial diet assessed as mortality rate at 95.65 ppm after 72 hr. Type of assay: functional.

Values after ≈ are worked out from the molar mass of the structure shown. Active and inactive are the calls of the source. The calls are words filed in the database; no cut-off is given here.

As for `CC(C)[C@@]1(O)[C@H](O)[C@@H]2[C@@]3(O)[C@@H]4O[C@@](O)(C[C@@]2(C)[C@@]2(O)CC[C@@H](C)[C@@H]42)[C@]31C` [ITOL A], the mortality (in general, the share of the test organisms that died) at 32 ppm in assay [1] came to 56%. Moreover, the outcome in assay [2], in assay [3], in assay [4] and in assay [8] was inactive. Further, the mortality at 73.63 ppm in assay [5] stood at 94%. In assay [6], the mortality at 56.19 ppm worked out at 83%. The LC90 in assay [7] amounted to 67.68 µg/mL (≈ 184 µM). Besides, in [7], the LC50 – broadly, the concentration that kills 50% of the test population – was determined as 28.6 µg/mL (≈ 77.7 µM). Besides, the mortality at 42.63 ppm in assay [9] amounted to 73%. Besides, the “growth inhibition (GI)” value in assay [10] is “inactive”. Further, the mortality at 96.88 ppm in [11] is 96%.

Consider `C[C@@H]1CC[C@@]2(O)[C@@H]1[C@H]1O[C@@]3(O)C[C@]2(C)[C@@H]2[C@@H](O)[C@](O)(C(C)(C)O)[C@@]3(C)[C@]12O`, for which the result in [2], in assay [3], in assay [4] and in assay [8] was inactive. Also, the “growth inhibition (GI)” value in assay [10] was “inactive”.

`CC(C)[C@@]1(O)[C@H](O)[C@@H]2[C@@]3(O)[C@@H]4O[C@@](O)(C[C@@]2(C)[C@@]2(O)CC[C@](C)(O)[C@@H]42)[C@]31C`: in assay [10], the “growth inhibition (GI)” value is “inactive”.

On to `CC(CO[C@@H]1O[C@H](CO)[C@@H](O)[C@H](O)[C@H]1O)[C@@]1(O)[C@H](O)[C@@H]2[C@@]3(O)[C@@H]4O[C@@](O)(C[C@@]2(C)[C@@]2(O)CC[C@@H](C)[C@@H]42)[C@]31C` (stereo partly specified), for which the result in assay [2], in [3], in assay [4] and in assay [8] was inactive. Besides, in [10], the “growth inhibition (GI)” value is “inactive”.

For `CC(C)[C@@]1(O)[C@H](O[C@@H]2O[C@H](CO)[C@@H](O)[C@H](O)[C@H]2O)[C@@H]2[C@@]3(O)[C@@H]4O[C@@](O)(C[C@@]2(C)[C@@]2(O)CC[C@@H](C)[C@@H]42)[C@]31C`, the outcome in [2], in [3], in assay [4] and in assay [8] was inactive. In addition, the “growth inhibition (GI)” value in assay [10] is “inactive”.

Turning to `CC(CO)[C@@]1(O)[C@H](O)[C@@H]2[C@@]3(O)[C@@H]4O[C@@](O)(C[C@@]2(C)[C@@]2(O)CC[C@@H](C)[C@@H]42)[C@]31C` (stereo partly specified) [ITOL B], the mortality at 72.68 ppm in [12] was found to be 69%. In [7], the LC90 amounted to 131.7 µg/mL (≈ 343 µM) and the median lethal concentration (LC50) was found to be 52.8 µg/mL (≈ 137 µM). The “growth inhibition (GI)” value in assay [10] was “inactive”. For the same molecule, in assay [13], the mortality at 31.56 ppm was determined as 26%. In addition, the mortality at 42.08 ppm in [14] came out at 31%. Further, the mortality at 55.64 ppm in [15] came out at 59%. Besides, the mortality at 95.65 ppm in assay [16] turned out to be 77%.
